Test results reported in EP4722219A1 (Gan & Lee Pharmaceuticals Co., Ltd., priority 2023, dated 2024).

Tests used:
Type in all cases: cell-based
ERα [1] = biological target: T1, ERα (Homo sapiens, UniProt P03372); test: ERα degradation in MCF-7 cells (Western blot); set-up: host or cells: MCF-7; conditions: 4 hours
T1 sequence (P03372 1-595): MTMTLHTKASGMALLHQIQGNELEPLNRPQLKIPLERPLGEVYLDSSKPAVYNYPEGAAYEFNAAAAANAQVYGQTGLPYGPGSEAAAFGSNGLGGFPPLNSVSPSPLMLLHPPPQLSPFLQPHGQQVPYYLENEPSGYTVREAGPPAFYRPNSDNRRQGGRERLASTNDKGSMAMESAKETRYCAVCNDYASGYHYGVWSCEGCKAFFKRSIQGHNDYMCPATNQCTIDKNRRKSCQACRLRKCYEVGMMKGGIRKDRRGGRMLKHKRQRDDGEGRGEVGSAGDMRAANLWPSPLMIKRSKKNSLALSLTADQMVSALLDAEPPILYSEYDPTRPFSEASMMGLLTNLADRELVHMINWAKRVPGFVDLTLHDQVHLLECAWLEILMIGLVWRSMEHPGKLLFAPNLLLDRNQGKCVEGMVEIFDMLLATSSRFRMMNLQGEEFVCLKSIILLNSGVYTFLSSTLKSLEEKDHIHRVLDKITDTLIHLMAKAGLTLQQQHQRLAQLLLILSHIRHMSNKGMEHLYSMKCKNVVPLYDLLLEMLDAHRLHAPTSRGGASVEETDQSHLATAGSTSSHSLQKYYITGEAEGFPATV
Procedure: Test Example 4 Effect of PROTAC Compounds Disclosed in the Present Invention on ERα Degradation in MCF-7 Cells
MCF-7 (ATCC) cells were cultured in DMEM medium (11995-065, Gibco) containing 10% FBS (10099141C, Gibco) at 37°C and 5% CO2 until they entered the logarithmic growth phase. MCF-7 cells were plated at a density of 3×10^5 cells/well in a 6-well plate and incubated at 37°C, 5% CO2 for 24 hours. After cell attachment, 1µL of compound in dimethyl sulfoxide (final concentration 0.15-1000nM) was added and incubated for another 4 hours at 37°C, 5% CO2 incubator. After 4 hours, the culture medium was discarded, and each well was washed once with 1 mL of pre-chilled 1× DPBS. The cells were then lysed with 50 µL of RIPA lysis buffer (P0013B, Beyotime) and 1× protease inhibitor cocktail (P1005, Beyotime). After incubation on ice for 20 minutes, the cells were centrifuged at 14,000 g at 4°C for 30 minutes. The supernatant was carefully collected and analyzed for ERα protein levels by immunoblotting.
(§1) Western blotting: The total protein concentration in the collected cell lysate supernatant was determined using the BCA protein concentration assay kit (enhanced) (P0009, Beyotime). Based on the total protein concentration determined by BCA, the protein concentration was adjusted to 1 µg/µL using RIPA lysis buffer and 5× SDS-PAGE protein loading buffer (MB01015, GenScript). The protein was denatured in a 95°C water bath for 5 minutes. After denaturation, the condensed water on the tube wall was collected by centrifugation and used as the loading sample. 20µL of the loading sample (20 µg of total protein) was added to the sample well of a 12% precast gel (M00669, GenScript). Electrophoresis was performed at 100 V for 20 minutes, followed by switching to 150 V for 40 minutes. After electrophoresis, the proteins from the SDS-PAGE gel were transferred to a PVDF membrane at a constant voltage of 100 V for 60 minutes. After transfer, the PVDF membrane corresponding to the ERα protein and internal reference protein was cut and incubated in 1× QµickBlock blocking buffer (P0252, Beyotime) for 30 minutes at room temperature on a shaker. After blocking, the ERα primary antibody (1:1000, 8644S, CST) was added and incubated overnight at 4°C on a shaker. The PVDF membrane was washed three times with 1× TBST buffer for 5 minutes each. Rabbit IgG (H+L) secondary antibody (1:7500, SA5-35571, Invitrogen) was added and incubated for 1 hour at room temperature on a shaker. The membrane was then washed again three times with 1× TBST buffer for 5 minutes each. Finally, the membrane was imaged using a dual-color infrared laser imaging system (Odyssey DLx, LICOR). Protein maps were analyzed for grayscale value using Image Studio Lite software. The grayscale correction value for each sample was calculated using the formula: grayscale correction value = grayscale value of the target protein / grayscale value of the corresponding internal reference. Then the grayscale correction values of the compound group and the control group were compared to calculate the degradation rate of the compound. Table 4 Degradation rate of ERα by PROTAC compounds of the present invention and positive control in MCF-7 cells (%)

ERα [2] = biological target: T1, ERα; test: ERα degradation in T-47D cells (Western blot); conditions: 4 hours
Procedure: as §1
Test Example 5 Degradation of ERα by the PROTAC compounds disclosed in the present invention in T-47D cells
T-47D (ATCC) cells were cultured in PRMI-1640 medium (30-2001, ATCC) containing 10% FBS (10099141C, Gibco) at 37°C and 5% CO2 until they entered the logarithmic growth phase. T-47D cells were seeded at a density of 3×10^5 cells/well in a 6-well plate and incubated at 37°C, 5% CO2 for 24 hours. After cell attachment, 1 µL of compound dimethyl sulfoxide solution (final concentration 0.15-1000 nM) was added and incubated for another 4 hours at 37°C, 5% CO2 incubator. After 4 hours, the culture medium was discarded, and each well was washed once with 1 mL of pre-chilled 1× DPBS. The cells were then lysed with 50 µL of RIPA lysis buffer (P0013B, Beyotime) and 1× protease inhibitor cocktail (P1005, Beyotime). After incubation on ice for 20 minutes, the cells were centrifuged at 14,000 g at 4°C for 30 minutes. The supernatant was carefully collected and analyzed for ERα protein levels by immunoblotting. Table 5 Degradation rate of ERα by PROTAC compounds of the present invention and positive control sample in T-47D cells (%)

MCF-7 cells = test: Inhibition of cell proliferation in MCF-7 cells (CCK-8); conditions: MCF-7 cell proliferation, 6 days treatment
Method in brief: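 MCF-7 cells, 800 per well in DMEM plus 10% FBS, exposed to graded PROTAC concentrations for 6 days at 37 °C, 5% CO2. Viability by CCK-8; IC50 fitted from inhibition rates.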

T-47D cells = test: Inhibition of cell proliferation in T-47D cells (CCK-8); conditions: 6 days treatment, CCK-8 cell viability
Method in brief: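 T-47D cells (3,000/well) in RPMI-1640 with 10% FBS were exposed to a concentration range of PROTAC compounds for 6 days at 37 °C, 5% CO2. Viability read by CCK-8; IC50 fitted from inhibition rate.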

Compound | Degradation rate of ERα in MCF-7 cells (%) (ERα [1]; 1nM) | Degradation rate of ERα in MCF-7 cells (%) (ERα [1]; 10nM) | Degradation rate of ERα in T-47D cells (%) (ERα [2]; 1nM) | Degradation rate of ERα in T-47D cells (%) (ERα [2]; 10nM) | IC50 (MCF-7 cells; Homo sapiens, MCF7, 144 h) [nM] | IC50 (T-47D cells; Homo sapiens, T47D, 144 h) [nM] | IC50 (MCF-7 cells) [nM] | IC50 (T-47D cells) [nM]
Cn1c(=O)n(C2CCC(=O)NC2=O)c2ccc3c(c21)OCC31CCN(C[C@H]2CC[C@@H](OC3CCN(c4ccc([C@@H]5c6ccc(O)cc6CC[C@@H]5c5ccccc5)cc4)CC3)CC2)CC1 (stereo partly drawn) [ER-P-54, 3-(1'-(((1S,4S)-4-((1-(4-((1R,2S)-6-hydroxy-2-phenyl-1,2,3,4-tetrahydronaphthalen-1-yl)phenyl)piperidin-4-yl)oxy)cyclohexyl)methyl)-1-methyl-2-oxo-1,2-dihydro-3H,7H-spiro[benzofuro[6,7-d]imidazole-6,4'-piperidin]-3-yl)piperidine-2,6-dione] | 50 | 76 | 67 | 81 | 1020 | 0.15 | – | –
COc1c(C(=O)N[C@H]2CCC(=O)NC2=O)ccc2c1OC[C@H]1CN(CC3CCC(OC4CCN(c5ccc([C@@H]6c7ccc(O)cc7CC[C@@H]6c6ccccc6)cc5)CC4)CC3)CCN21 (stereo partly drawn) [ER-P-48, (R)-N-((S)-2,6-dioxopiperidin-3-yl)-3-(((1S,4S)-4-((1-(4-((1R,2S)-6-hydroxy-2-phenyl-1,2,3,4-tetrahydronaphthalen-1-yl)phenyl)piperidin-4-yl)oxy)cyclohexyl)methyl)-7-methoxy-1,2,3,4,4a,5-hexahydrobenzo[b]pyrazi no[1,2-d][1,4]oxazine-8-carboxamide] | 13 | -1 | 6 | 0 | – | – | 7390 | 115
O=C1CCC(N2Cc3c(ccc4c3OCC43CCC4(CCN(CC5CCN(c6ccc([C@@H]7c8ccc(O)cc8CC[C@@H]7c7ccccc7)cc6)CC5)CC4)CC3)C2=O)C(=O)N1 (stereo partly drawn) [ER-P-1, 3-(1"-((1-(4-((1R,2S)-6-hydroxy-2-phenyl-1,2,3,4-tetrahydronaphthalen-1-yl)phenyl)piperidin-4-yl)methyl)-6-oxo-6,8-dihydro-2H,7H-dipyrazole[furo[2,3-e]isoindole-3,1'-cyclohexane-4',4'-piperidin]-7-yl)piperidine-2,6-dione] | 19 | 44 | 52 | 81 | < 0.256 | 3.74 | – | –
Cn1c(=O)n(C2CCC(=O)NC2=O)c2ccc3c(c21)OCC31CCN(C(=O)C2CN(CC3CCN(c4ccc([C@@H]5c6ccc(O)cc6CC[C@@H]5c5ccccc5)cc4)CC3)C2)CC1 (stereo partly drawn) [ER-P-25, 3-(1'-(1-((1-(4-((1R,2S)-6-hydroxy-2-phenyl-1,2,3,4-tetrahydronaphthalen-1-yl)phenyl)piperidin-4-yl)methyl)azetidine-3-carbonyl)-1-methyl-2-oxo-1,2-dihydro-3H,7H-spiro[benzofuro[6,7-d]imidazole-6,4'-piperidin]-3-yl)piperidine-2,6-dione] | 49 | 53 | 77 | 71 | 1.26 | 0.84 | – | –
Cn1c(=O)n(C2CCC(=O)NC2=O)c2ccc3c(c21)OCC31CCN(C2CC3(CCN(c4ccc([C@@H]5c6ccc(O)cc6CC[C@@H]5c5ccccc5)cc4)CC3)C2)CC1 (stereo partly drawn) [ER-P-15, 3-(1'-(7-(4-((1R,2S)-6-hydroxy-2-phenyl-1,2,3,4-tetrahydronaphthalen-1-yl)phenyl)-7-azaspiro[3.5]nonan-2-yl)-1-methyl-2-oxo-1,2-dihydro-3H,7H-spiro[benzofuro[6,7-d]imidazole-6,4'-piperidin]-3-yl)piperidine-2,6-dione] | 22 | 26 | 44 | 31 | 2980 | – | – | 0.65
